One test deals with S. epidermidis. In words: In vitro broth microdilution minimal inhibitory concentration, S. epidermidis (Table I). It is filed as cell-based. Conditions: Staphylococcus epidermidis; broth microdilution, Mueller-Hinton broth, 24 hour; read-out: MIC (minimal inhibitory concentration), S. epidermidis. The source says: (§1) A list is presented in Table I of analogs which exert an in-vitro antibacterial effect.
Background: In broth dilution the organism is exposed to a series of concentrations in liquid medium.

Test [1] deals with E. Coli. Briefly: In vitro broth microdilution minimal inhibitory concentration, E. Coli (Table I). Conditions: Escherichia coli; broth microdilution, Mueller-Hinton broth, 24 hour; read-out: MIC (minimal inhibitory concentration), E. Coli. It is filed as cell-based.
From the text: as §1

Test [2] concerns E. Coli. Briefly: In vitro antibacterial spectrum, agar dilution (Table II). Format: cell-based. The note with it: Escherichia coli, 86 isolates, 24-hour, 35° C. The protocol: (§2) A summary of the in-vitro antibacterial spectrum of l-4-[5-(hydroxymethyl)-2-oxooxazolidin-3-yl]benzenesulfonamide, is shown in Table II. The minimal inhibitory concentrations for the aerobic and facultative anaerobic test isolates representing two gram-positive and eleven gram-negative genera were determined by an agar dilution method. The method is state of the art and is as follows. Mueller-Hinton agar plates are prepared containing two-fold compound concentrations ranging from 128 μg/ml to 1.0 μg/ml for the susceptibility testing of the bacterial strains except Neisseria gonorrhoea and Hemophilus sp. The latter organisms are tested using GC agar containing 1% Bacto-Supplement C (Difco Laboratories, Detroit, Mich.) and are incubated under 6% CO2. The agar plates are inoculated with a 0.001 ml calibrated loopful of bacterial inoculum diluted to contain 5×10^6 colony-forming units (CFU) per ml.

The subject of the next test is Enterobacter sp. Described as above. Conditions: 41 isolates, 24-hour, 35° C. Format: cell-based. The protocol: as §2
In another test the test system is Haemophilus sp. The description is as above. Conditions: 4 isolates, GC agar, 6% CO2, 24-hour, 35° C. It is filed as cell-based. The protocol:
as §2

A further test deals with Klebsiella sp. The test is described as above. It is filed as cell-based. Conditions: 50 isolates, 24-hour, 35° C. The protocol:
as §2

A further test relates to Neisseria sp. The test is described as above. Format: cell-based. Conditions: 43 isolates, 24-hour, 35° C. The protocol: as §2
In another test the test system is Proteus sp. The description is as above. Format: cell-based. The note with it: 88 isolates, 24-hour, 35° C. The protocol: as §2
Another test concerns Providencia sp. The description is as above. Format: cell-based. The note with it: 12 isolates, 24-hour, 35° C. The protocol:
as §2

A further test deals with Pseudomonas sp. The test is described as above. Format: cell-based. Conditions: 79 isolates, 24-hour, 35° C. The protocol: as §2
The next test deals with Salmonella sp. Described as above. Format: cell-based. The note with it: 6 isolates, 24-hour, 35° C. The protocol: as §2
A further test concerns Serratia sp. Described as above. It is filed as cell-based. Conditions: 44 isolates, 24-hour, 35° C. The protocol:
as §2

The subject of the next test is Shiqella sp. The test is described as above. It is filed as cell-based. Conditions: 24 h, read-out: MEAN MIC, Shiqella sp. The protocol: as §2
The next test deals with Staphylococci sp. Described as above. Format: cell-based. The note with it: 38 isolates, 24-hour, 35° C. The protocol: as §2
A further test relates to Streptococci sp. Described as above. It is filed as cell-based. Conditions: 14 isolates, 24-hour, 35° C. The protocol: as §2
The next test relates to Bacteroides sp. In words: In vitro antibacterial spectrum, agar dilution for anaerobic bacteria (Table II). Conditions: 23 isolates. Format: cell-based. The protocol:
(§3) The agar dilution method described by A. L. Barry ("The Antimicrobic Susceptibility Test: Principles and Practice", 1976, Lea and Febiger, Philadelphia, Pa.) with compound concentrations of 32 μg/ml to 0.06 μg/ml, was used to determine the inhibitory activity of l-4-[5-(hydroxymethyl)-2-oxooxazolidin-3-yl]benzenesulfonamide for anaerobic bacteria.

A further test relates to Clostridium sp. The test is described as above. It is filed as cell-based. Conditions: 5 isolates. The protocol: as §3
The subject of a further test is Fusobacterium sp. Described as above. It is filed as cell-based. The note with it: 4 isolates. The protocol: as §3
The test system of the next test is Gram - Anaerobic Cocci. The description is as above. Format: cell-based. Conditions: 7 isolates. The protocol:
as §3

The subject of the next test is Staphylococcus aureus. Briefly: In vivo efficacy in mice infected intraperitoneally with Staphylococcus aureus (Table III). Conditions: 4 h, mice, intraperitoneal infection, 5% hog gastric mucin, oral dosing at infection and four hours post-infection, Reed-Muench, read-out: ED50, S. auerus. The protocol: (§4) In-vivo efficacy determinations were performed by inoculating mice interaperitoneally with cultures of the infecting organism diluted to produce 90-100% mortality in control animals within seven days. The diluents used were trypticase soy broth for E. coli, Proteus sp. and Psuedomonas aeruginosa and 5% hog gastric mucin for Staphylococcus aureus infections. The compounds, dissolved or suspended in 0.25% methocel.cndot.H2 O were administered orally by intubation at the time of infection and again at four hours post-infection. Mortality was recorded daily until test termination and the 50 percent effective dose. ED50, was calculated by the Reed-Muench method (Reed, L. G. and Muench, H., "A simple method of estimating fifty percent end points." American Journal of Hygiene, 27, 1938, 493-497).

In test [3] the test system is E. coli. In words: In vivo efficacy in mice infected intraperitoneally with E. coli (Table III). The note with it: Escherichia coli, 4 h; mice, intraperitoneal infection, trypticase soy broth; oral dosing at infection and four hours post-infection; Reed-Muench; read-out: ED50, E. Coli. The protocol:
as §4

Structures are written as SMILES. Values after ≈ are worked out from the molar mass of the structure shown.

What is called ED50 is the midpoint of the dose-response relation. Regarding `NS(=O)(=O)c1ccc(N2C[C@@H](CO)OC2=O)cc1` [Example 2, l-4-[5-(Hydroxymethyl)-2-oxooxazolidin-3-yl]benzenesulfonamide], the MIC was found to be 100 µg/mL (≈ 367 µM) in the test with S. epidermidis; 50 µg/mL (≈ 184 µM) with E. Coli [1]; 29.8 µg/mL (≈ 109 µM) in the test with E. Coli [2]; 58.5 µg/mL (≈ 215 µM) with Enterobacter sp.; 32 µg/mL (≈ 118 µM) in the test on Haemophilus sp.; 39.4 µg/mL (≈ 145 µM) against Klebsiella sp.. The MIC against Neisseria sp. was 12.3 µg/mL (≈ 45.2 µM); in the test with Proteus sp. it was 29.1 µg/mL (≈ 107 µM); in the test on Providencia sp., 41.3 µg/mL (≈ 152 µM); against Pseudomonas sp. it was not below 117 µg/mL; against Salmonella sp., 32 µg/mL (≈ 118 µM); against Serratia sp., not below 96 µg/mL. Further, the MIC in the test on Shiqella sp. was 8 µg/mL (≈ 29.4 µM); with Staphylococci sp., 22.3 µg/mL (≈ 81.9 µM); against Streptococci sp. it was 7.7 µg/mL (≈ 28.3 µM); in the test with Bacteroides sp. it was not below 15.1 µg/mL; in the test with Clostridium sp. it was 16.8 µg/mL (≈ 61.7 µM); against Fusobacterium sp. it was 0.9 µg/mL (≈ 3.31 µM). In addition, in the test on Gram - Anaerobic Cocci, the MIC was found to be 6.1 µg/mL (≈ 22.4 µM). The ED50 was determined as 17.1 mg/kg with Staphylococcus aureus and 13.2 mg/kg with E. coli [3].

The values are drawn from US4461773A, “P-Oxooxazolidinylbenzene compounds as antibacterial agents” (E. I. DuPont de Nemours and Company, priority 1984, dated 1984).
